Test results published in publication PMC7230731 (Marine Drugs, 2020).
Values belong to the compound of their own block, whether it stands above or below them.

Key:
[1] = test system: Bax; assay: ELISA immunoassay, Bax level; type: cell-based, human; settings: MCF-7 cells; for Bax: IC50 concentration, 48 h
Excerpt: (§1) Synchronization of the mitochondrial pathway is headed by the Bcl-2 family of proteins. These proteins are classified into two groups: anti-apoptotic proteins exemplified by Bcl-2 protein and the counteracting pro-apoptotic proteins including Bax protein [21]. As induction of the apoptotic machinery is one of the most useful strategies in cancer therapy, we investigated the effect of our compounds to boost the pro-apoptotic protein; Bax and reduce the anti-apoptotic protein; Bcl-2 in an attempt to explore the underlying mechanism for their cytotoxic activity (Table 1). […] Fortunately, both compounds markedly boosted the level of Bax by 8.3- and 6.4-fold, respectively (Table 4, Figure 3).
(§2) Effects of treatment of breast cancer MCF-7 cells with bis-indoles 7e and 9a on the expression levels of the pro-apoptotic markers (Bax, caspase-3, and p53) in addition to the anti-apoptotic protein Bcl-2 marker was assessed by the use of ELISA colorimetric kits as per the manufacturer’s instructions, as described earlier.
(§3) The levels of the pro-apoptotic markers (Bax, caspase-3 and p53) as well as the anti-apoptotic marker Bcl-2 were determined using ELISA colorimetric kits per the manufacturer’s instructions. Breast cancer MCF-7 cells were cultured as a monolayer in T-25 flasks and were seeded to attain 30% confluency prior to treatment. Cells were […]
(§4) At the end of treatment, cells were collected via trypsinization and centrifuged at 10,000 rpm. The pellet was then rinsed with PBS and lysed in RIPA lysis buffer at 4 °C for 45 min, then centrifuged at 14,000 rpm for 20 min to remove the cellular debris. Lysates were then collected and stored at −80 °C for later protein determination using Pierce BCA Protein Assay Kit according to manufacturer’s recommendations.
(§5) The cell lysate was diluted 10 times, and 100 μL ([…]) was added to the wells of four separate microtiter plates for the four ELISA kits that were pre-coated with primary antibodies specific to Bax, Bcl-2, caspase-3 and p53 proteins, respectively. A secondary biotin-linked antibody specific to the protein captured by the primary antibody was further added to bind the captured protein, forming a “sandwich” of specific antibodies around the desired protein in the cell lysate. The streptavidin-HRP complex was then used to bind the biotin-linked secondary antibody through its streptavidin portion. The HRP domain reacted with the added TMB substrate to form a colored product that measured at 450 nm by a plate reader ChroMate-4300 after the reaction was terminated via the addition of stop solution. […]
Breast […]
cancer MCF-7 cells were cultured to a monolayer then treated with bis-indoles 7e and 9a at their IC50 concentration. […]

[2] = test system: caspase-3; assay: ELISA immunoassay, active caspase-3 level; type: cell-based, human; settings: for increase of caspase-3 level vs control: MCF-7 cells; for Caspase-3: active caspase-3, MCF-7 cells, IC50 concentration, 48 h
Procedure: (§6) Moreover, their effect on the level of caspase-3; the executioner caspase and p53 was evaluated in the MCF-7 cell line. […] In addition, they augmented the level of p53 by 15.4- and 11.75-fold, respectively in comparison to the control (Table 5, Figure 3).
as §2, §3, §4, §5

[3] = test system: Bax/Bcl-2; assay: Bax/Bcl-2 ratio from ELISA; type: cell-based, human; settings: MCF-7 cells; for Bax/Bcl-2: IC50 concentration, 48 h
Excerpt: as §1, §2, §3, §4, §5

[4] = test system: MCF-10A cells; assay: SRB cytotoxicity assay, non-tumorigenic MCF-10A; type: cell-based, human; settings: for Selectivity Index MCF-10A/MCF-7: IC50 MCF-10A / IC50 MCF-7; for IC50: non-tumorigenic human breast epithelial MCF-10A cells, SRB assay
Excerpt: The two examined human breast cancer cell lines (MCF-7 and Breast MDA-MB-231), and non-tumorigenic human breast epithelial cell line (MCF-10A) have been obtained from the American Type Culture Collection (ATCC). Assessment of cytotoxicity for target indole derivatives has been performed following the SRB colorimetric assay procedures, as reported earlier.
1. Anti-proliferative action toward human breast cell lines
The two examined human breast cancer cell lines (MCF-7 and Breast MDA-MB-231), and non-tumorigenic human breast epithelial cell line (MCF-10A) have been obtained from American Type Culture Collection (ATCC). The cells were maintained in Dulbecco's modified Eagle's medium (DMEM) supplemented with 10% heat inactivated fetal calf serum (GIBCO), penicillin (100 U/ml) and streptomycin (100 µg/ml) at 37 °C in humidified atmosphere containing 5% CO2. Cells at a concentration of 0.50 x 106 were grown in a 25 cm2 flask in 5 ml of culture medium.
The anti-proliferative activity of the tested compounds was measured in vitro using the Sulfo-Rhodamine-B stain (SRB) assay. Briefly, Cells were inoculated in 96-well microtiter plate (5X104 cells/ well) for 24 h before treatment with the tested compounds to allow attachment of cell to the wall of the plate. Tested compounds were dissolved in DMSO at 1 mg/ml immediately before use and diluted to the appropriate volume just before addition to the cell culture. Different concentrations of tested compounds, doxorubicin and sorafenib were added to the cells (three wells were prepared for each individual dose). Cells were incubated with the compounds for 48 h at 37°C and in atmosphere of 5% CO2. After 48 h cells were fixed, washed, and stained for 30 min with 0.4% (w/v) SRB dissolved in 1% acetic acid. Unbound dye was removed by four washes with 1% acetic acid, and attached stain was recovered with Tris-EDTA buffer. Color intensity was measured in an ELISA reader. The relation between percent of surviving fraction and drug concentration is plotted to get the survival curve for each cell line. […]

[5] = target: T1, CDK2 (Homo sapiens, UniProt P24941); assay: CDK2 kinase inhibition (Reaction Biology HotSpot); type: biochemical; settings: single dose of 10 µM, read-out: % Enzyme Inhibitory Activity
T1 construct: purchased Reaction Biology Corp. (Kinase HotSpot service)
Procedure: The in vitro CDK2 kinase inhibition assay was carried out by Reaction Biology Corp. (Reaction Biology Corp., Chester, PA, USA) Kinase HotSpotSM service (http://www.reactionbiology.com).
5. CDK2 kinase inhibitory activity
Reaction Biology Corp. Kinase HotSpotSM service
(http://www.reactionbiology.com) was used for screening of tested compounds. CDK2 Kinase inhibitory activity was assessed by the HotSpot assay platform, which contained specific kinase/substrate pairs along with required cofactors. Base reaction buffer:
0.1 mM Na3VO4, 2 mM DTT, 1% DMSO. Testing compounds were dissolved in 100% DMSO to specific concentration. The serial dilution was conducted by Integra Viaflo Assist in DMSO. The reaction mixture containing the examined compound and 33P-ATP was incubated at room temperature for 2 h and radioactivity was detected by filter-binding method. Kinase activity data were expressed as the percent remaining kinase activity in test samples compared to vehicle (dimethyl sulfoxide) reactions.

[6] = test system: p53; assay: ELISA immunoassay, p53 level; type: cell-based, human; settings: MCF-7 cells; for p53: IC50 concentration, 48 h
Procedure: as §6, §2, §3, §4, §5

[7] = test system: Bcl-2; assay: ELISA immunoassay, Bcl-2 level; type: cell-based, human; settings: MCF-7 cells; for Bcl-2: IC50 concentration, 48 h
Excerpt: as §1, §2, §3, §4, §5

inhibition at 10 µM [5]: 23%
SMILES: C=CCN1C(=O)C(=NNC(=O)Cc2c[nH]c3ccccc23)c2ccccc21 [Compound 9a, N′-(1-Allyl-2-oxoindolin-3-ylidene)-2-(1H-indol-3-yl)acetohydrazide]
increase of Bax level vs control [1]: 6.4 fold | Bax [1]: 243.6 ± 12.4 pg/mg of Total Protein | increase of caspase-3 level vs control [2]: 9.5 fold | Caspase-3 [2]: 331.0 ± 12.5 pg/mg | Bax/Bcl-2 ratio augmentation vs control [3]: 11.1 fold | Bax/Bcl-2 [3]: 91.2 | Selectivity Index MCF-10A/MCF-7 [4]: 18.3 | IC50 [4]: 23.5 µM | increase of p53 level vs control [6]: 11.75 fold | p53 [6]: 482.3 ± 27.4 pg/mg | decrease of Bcl-2 level vs control [7]: 1.74 fold | Bcl-2 [7]: 2.67 ± 0.16 ng/mg of Total Protein

inhibition at 10 µM [5]: 16%
SMILES: O=C(Cc1c[nH]c2ccccc12)NN=C1C(=O)Nc2ccc([N+](=O)[O-])cc21 [Compound 7e, 2-(1H-Indol-3-yl)-N′-(5-nitro-2-oxoindolin-3-ylidene)acetohydrazide]
increase of Bax level vs control [1]: 8.3 fold | Bax [1]: 318.0 ± 10.5 pg/mg of Total Protein | increase of caspase-3 level vs control [2]: 11.7 fold | Caspase-3 [2]: 409.2 ± 17.2 pg/mg | Bax/Bcl-2 ratio augmentation vs control [3]: 18.65 fold | Bax/Bcl-2 [3]: 153.6 | Selectivity Index MCF-10A/MCF-7 [4]: 38.7 | IC50 [4]: 17.1 µM | increase of p53 level vs control [6]: 15.4 fold | p53 [6]: 631.8 ± 35.8 pg/mg | decrease of Bcl-2 level vs control [7]: 2.25 fold | Bcl-2 [7]: 2.07 ± 0.14 ng/mg of Total Protein
